For one assay, the system named is PC-3. Nature of the assay: Antiproliferative activity against human PC3 cells after 96 hrs by SRB assay. Format: functional, cell-based. The conditions noted are these: PC-3, 96 h.
The subject of another assay is PANC-1. Nature of the assay: Antiproliferative activity against human PANC1 cells after 96 hrs by SRB assay. Format: functional, cell-based. The conditions noted are these: PANC-1, 96 h.
A short description of assay [1]: Antiproliferative activity against human 786-O cells after 96 hrs by SRB assay. The conditions noted are these: 786-0, 96 h. The class given is functional, cell-based.
The subject of another assay is SAOS-2. Nature of the assay: Antiproliferative activity against human Saos2 cells after 96 hrs by SRB assay. The class given is functional, cell-based. The conditions noted are these: SAOS-2, 96 h.
The next assay concerns A498. Nature of the assay: Antiproliferative activity against human A498 cells after 96 hrs by SRB assay. The conditions noted are these: A498, 96 h. The class given is functional, cell-based.
Another assay deals with MCF7. In words: Antiproliferative activity against human MCF7 cells after 96 hrs by SRB assay. Format: functional, cell-based. The conditions noted are these: MCF7, 96 h.
A short description of assay [2]: Antiproliferative activity against human RCC4 cells after 96 hrs by SRB assay. The class given is functional, cell-based. The conditions noted are these: RCC4, 96 h.
For a further assay, the system named is OST. In words: Antiproliferative activity against human OST cells after 96 hrs by SRB assay. Format: functional, cell-based.
For the next assay, the system named is HOS-TE85. In words: Antiproliferative activity against human MNNG-HOS cells after 96 hrs by SRB assay. Format: functional, cell-based. The conditions noted are these: HOS-TE85, 96 h.
For another assay, the system named is WI-38. In words: Cytotoxicity against human WI38 after 96 hrs by SRB assay. Format: cell-based. The conditions noted are these: WI-38, 96 h.
Assay [3] can be described thus: Antiproliferative activity against human TC71 cells after 96 hrs by SRB assay. The class given is functional, cell-based. The conditions noted are these: TC-71, 96 h.
Assay [4] is described as follows: Antiproliferative activity against human TC32 cells after 96 hrs by SRB assay. The class given is functional, cell-based. The conditions noted are these: TC-32, 96 h.
In another assay the test system is U2OS. In words: Antiproliferative activity against human U2OS cells after 96 hrs by SRB assay. The class given is functional, cell-based.
A short description of assay [5]: Antiproliferative activity against human TC135 cells after 96 hrs by SRB assay. Format: functional, cell-based. The conditions noted are these: TC135, 96 h.
A further assay relates to A549. In words: Antiproliferative activity against human A549 cells after 96 hrs by SRB assay. The class given is functional, cell-based. The conditions noted are these: A549, 96 h.
The next assay deals with HPAC. In words: Antiproliferative activity against human HPAC cells after 96 hrs by SRB assay. The class given is functional, cell-based.
A further assay has as its system MIA PaCa-2. In words: Antiproliferative activity against human MIAPaCa2 cells after 96 hrs by SRB assay. The conditions noted are these: MIA PaCa-2, 96 h. Format: functional, cell-based.
For a further assay, the system named is HOS. Nature of the assay: Antiproliferative activity against human HOS cells after 96 hrs by SRB assay. The class given is functional, cell-based.
The nature of assay [6]: Antiproliferative activity against human RCC4/VHL cells after 96 hrs by SRB assay. Format: functional, cell-based.
In another assay the test system is MG-63. In words: Antiproliferative activity against human MG63 cells after 96 hrs by SRB assay. Format: functional, cell-based. The conditions noted are these: MG-63, 96 h.
In assay [7] the test system is Nucleic Acid. In words: Binding affinity to HIF2alpha DNA by surface plasmon resonance assay. Format: nucleic-acid assay.
The test system of assay [8] is Nucleic Acid. Nature of the assay: Binding affinity to 5'-GGGGCGGGCACGGGGCGGG-3' DNA by surface plasmon resonance. Format: nucleic-acid assay.
Assay [9] deals with Nucleic Acid. In words: Binding affinity to HIF1alpha DNA by surface plasmon resonance assay. Format: nucleic-acid assay.

Calls of active or inactive are those of the source. The calls are words filed in the database; no cut-off is given here.

Regarding `O=C(CCN1CCCC1)Nc1cccc(-n2cc(-c3ccc4ccc(-c5cn(-c6cccc(NC(=O)CCN7CCCC7)c6)nn5)cc4c3)nn2)c1`, the IC50 is 9.4 µM with PC-3; 7.1 µM with PANC-1; 5.85 µM in assay [1]; 2.7 µM in the assay with SAOS-2; 7.5 µM in the assay on A498; 30 µM in the assay with MCF7. Also, the IC50 in [2] turned out to be 4.2 µM; in the assay on OST, 2.2 µM; with HOS-TE85 it was 2.9 µM; with WI-38 it was 18 µM; in assay [3], 8.9 µM; in assay [4], 1.9 µM. In addition, the IC50 came to 13 µM in the assay with U2OS; 2.5 µM in [5]; 76 µM in the assay with A549; 8 µM in the assay on HPAC; 11 µM with MIA PaCa-2; 7.1 µM in the assay with HOS. The IC50 in [6] was 6.8 µM; in the assay on MG-63 it was over 100 µM.

Consider `CCN(CC)CCC(=O)Nc1cccc(-n2cc(-c3ccc4ccc(-c5cn(-c6cccc(NC(=O)CCN(CC)CC)c6)nn5)cc4c3)nn2)c1`, for which the IC50 in the assay on PC-3 turned out to be 7.8 µM; in the assay with PANC-1, 7.4 µM; in assay [1], 9.8 µM; in the assay on SAOS-2, 2.8 µM; in the assay with A498 it was 9.9 µM; in the assay on MCF7 it was 21 µM. Moreover, the IC50 in assay [2] was determined as 1.6 µM; in the assay on OST, 2.1 µM; with HOS-TE85 it was 3.1 µM; with WI-38, 10.6 µM; in assay [3], 28 µM; in assay [4] it was 2.5 µM. The IC50 in the assay on U2OS worked out at 7.8 µM; in assay [5] it was 2.6 µM; with A549, 29 µM; with MIA PaCa-2, 17.5 µM; in [6], 2.7 µM.

`O=C(CCN1CCCC1)Nc1ccc(-n2cc(-c3ccc4ccc(-c5cn(-c6ccc(NC(=O)CCN7CCCC7)cc6)nn5)cc4c3)nn2)cc1`: the half-inhibitory concentration (IC50) was found to be 7.1 µM with PC-3; 7.8 µM with PANC-1; 6.5 µM in assay [1]; 1.8 µM in the assay on SAOS-2; 1.9 µM in the assay on A498; 8.1 µM with MCF7. Further, the IC50 in [2] stood at 2.5 µM; in the assay on OST, 0.9 µM; in the assay on HOS-TE85 it was 2.1 µM; with WI-38, 3.9 µM; in [3] it was 16 µM; in assay [4] it was 0.7 µM. Also, the IC50 in the assay on U2OS was 2.2 µM; in assay [5], 2.2 µM; with A549, 17 µM; with HPAC, 1.9 µM; in the assay with MIA PaCa-2, 7.2 µM; in the assay with HOS it was 0.6 µM. The figures for the IC50 (in assay [6]; in the assay on MG-63) were 2.6 µM and 2.8 µM, respectively.

In the case of `O=C(CN1CCCC1)Nc1cccc(-n2cc(-c3ccc4ccc(-c5cn(-c6cccc(NC(=O)CN7CCCC7)c6)nn5)cc4c3)nn2)c1`, the half-maximal inhibitory concentration (IC50) is 25 µM in the assay with PC-3; 29 µM in the assay on PANC-1; 6.9 µM in [1]; 5.8 µM in the assay on SAOS-2; 3.1 µM in the assay with A498; over 100 µM in the assay on MCF7. The concentration for half-maximal inhibition (IC50) in assay [2] came out at 3.2 µM; in the assay on OST, 7.1 µM; in the assay on HOS-TE85, 9 µM; in the assay with WI-38 it was 17 µM; in assay [3], 75 µM; in assay [4], 3 µM. Further, the IC50 is 22 µM in the assay with U2OS; 11 µM in [5]; 72 µM in the assay on A549; 9 µM with HPAC; over 100 µM in the assay on MIA PaCa-2; 2 µM with HOS. Besides, the IC50 in assay [6] came out at 2.4 µM; with MG-63, 16 µM.

As to `CCN(CC)CCC(=O)Nc1ccc(-n2cc(-c3ccc4ccc(-c5cn(-c6ccc(NC(=O)CCN(CC)CC)cc6)nn5)cc4c3)nn2)cc1`, the IC50 in the assay with PC-3 came out at 8.2 µM; with PANC-1, 8 µM; in assay [1], 5.6 µM; with SAOS-2 it was 2.5 µM; with A498, 6.9 µM; in the assay with MCF7, 9.2 µM. Moreover, the IC50 in [2] came out at 1.9 µM; in the assay on OST it was 1.9 µM; in the assay with HOS-TE85 it was 2.8 µM; in the assay on WI-38 it was 7.4 µM; in [3], 7.5 µM; in [4], 2.1 µM. Also, the IC50 in the assay with U2OS turned out to be 5.1 µM; in assay [5], 2.2 µM; in the assay with A549, 7.6 µM; in the assay on HPAC, 6.9 µM; in the assay on MIA PaCa-2 it was 12.5 µM; with HOS, 5.2 µM. Besides, the IC50 turned out to be 2.4 µM in assay [6] and 7 µM in the assay with MG-63.

On to `O=C(CN1CCCC1)Nc1ccc(-n2cc(-c3ccc4ccc(-c5cn(-c6ccc(NC(=O)CN7CCCC7)cc6)nn5)cc4c3)nn2)cc1`, for which the IC50 with PC-3 is 91 µM; in the assay with PANC-1, 88 µM; in assay [1] it was 2.6 µM; in the assay with SAOS-2, 9 µM; in the assay on A498, 3.5 µM; in the assay on MCF7, over 100 µM. The 50% inhibitory concentration (IC50) in assay [2] turned out to be 5.1 µM; in the assay with OST, 14 µM; in the assay with HOS-TE85, 9.1 µM; with WI-38, 26 µM; in assay [3] it was 14 µM; in assay [4] it was 2.5 µM. The IC50 worked out at 18 µM in the assay with U2OS; 3.2 µM in assay [5]; 80.5 µM with A549; 9.5 µM in the assay with HPAC; 25.5 µM in the assay with MIA PaCa-2; 2.6 µM in the assay on HOS. Moreover, the IC50 is 6.4 µM in assay [6] and over 10 µM in the assay on MG-63. Further, the K worked out at 0.97 ×10⁷ /M in the assay with Nucleic Acid [7] and 1.49 ×10⁷ /M in the assay on Nucleic Acid [9]. Besides, the K entry in the assay on Nucleic Acid [8] is “inactive”.

Consider `O=C(CN1CCCCC1)Nc1cccc(-n2cc(-c3ccc4ccc(-c5cn(-c6cccc(NC(=O)CN7CCCCC7)c6)nn5)cc4c3)nn2)c1`, for which the IC50 was over 100 µM in the assay with PC-3; over 100 µM in the assay with PANC-1; 17.5 µM in assay [1]; 16 µM with SAOS-2; 19 µM in the assay with A498; over 100 µM with MCF7. Further, the IC50 in assay [2] was 2.6 µM; in the assay with OST, 37 µM; in the assay on HOS-TE85, 23 µM; in the assay with WI-38 it was over 10 µM; in assay [3], 81 µM; in [4], 6.6 µM. Besides, the IC50 in the assay with U2OS was 22 µM; in [5] it was 14 µM; in the assay on A549, over 100 µM; with HPAC, 96 µM; in the assay with MIA PaCa-2 it was over 100 µM; in the assay on HOS, 47 µM. In addition, the IC50 in [6] stood at 2.7 µM; in the assay with MG-63, 90 µM. Moreover, the K amounted to 0.59 ×10⁷ /M in the assay on Nucleic Acid [7] and 0.81 ×10⁷ /M in the assay with Nucleic Acid [9]. In the assay with Nucleic Acid [8], the K result is “inactive”.

`CCN(CC)CC(=O)Nc1ccc(-n2cc(-c3ccc4ccc(-c5cn(-c6ccc(NC(=O)CN(CC)CC)cc6)nn5)cc4c3)nn2)cc1`: the IC50 with PC-3 is over 100 µM; with PANC-1, over 100 µM; in assay [1] it was 23 µM; in the assay with SAOS-2 it was 95 µM; in the assay on A498, 8 µM; with MCF7, 100 µM. The IC50 in [2] is 22 µM; with OST, 37 µM; in the assay on HOS-TE85, 25 µM; in the assay on WI-38 it was 9 µM; in assay [3], over 100 µM; in [4], 29 µM. Moreover, the IC50 is 22 µM with U2OS; 23 µM in [5]; over 100 µM with A549; 52 µM in the assay on HPAC; over 100 µM in the assay on MIA PaCa-2; 75 µM in the assay with HOS. In addition, the IC50 in [6] was found to be 26 µM; with MG-63 it was 81 µM. The K in the assay with Nucleic Acid [7] was determined as 0.15 ×10⁷ /M; in the assay on Nucleic Acid [9] it was 1.25 ×10⁷ /M. The K entry in the assay on Nucleic Acid [8] was “inactive”.

These data come from ChEMBL document CHEMBL2069296, “A novel series of G-quadruplex ligands with selectivity for HIF-expressing osteosarcoma and renal cancer cell lines” (Bioorg Med Chem Lett, 2012).
